Values belong to the compound of their own block, whether it stands above or below them. Active and inactive are the calls of the source. No cut-off for these calls is given here.
Key:
A549 [1] = assay: Cytotoxicity against human A549 cells assessed as inhibition of cell growth incubated for 24 hrs by MTT assay; type: functional, cell-based; settings: A549, 24 h
[2] = Cytotoxicity against human CCD 19Lu cells assessed as inhibition of cell growth incubated for 24 hrs by MTT assay; type: toxicity, cell-based
[3] = target: Procathepsin L (Homo sapiens) (UniProt P07711); assay: Inhibition of cathepsin L (unknown origin) at 100 uM
Sequence of Procathepsin L (Homo sapiens) (P07711 114-333 limits assumed): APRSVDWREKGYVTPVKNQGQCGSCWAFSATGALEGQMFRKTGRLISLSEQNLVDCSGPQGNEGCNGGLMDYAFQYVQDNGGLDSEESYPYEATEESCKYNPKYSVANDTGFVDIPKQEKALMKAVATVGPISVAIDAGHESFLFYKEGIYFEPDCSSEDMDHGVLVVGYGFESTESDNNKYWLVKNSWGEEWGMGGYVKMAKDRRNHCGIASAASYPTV

[4] = Selectivity index, ratio of IC50 for cytotoxicity against human hTERT-HPNE cells to IC50 for cytotoxicity against human PANC-1 cells; type: toxicity, cell-based; settings: hTERT-HPNE cells versus PANC-1 cells, read-out: Ratio IC50
[5] = Cytotoxicity against human hTERT-HPNE cells assessed as inhibition of cell growth incubated for 24 hrs by MTT assay; type: toxicity, cell-based
[6] = Selectivity index, ratio of IC50 for cytotoxicity against human CCD 19Lu cells to IC50 for cytotoxicity against human A549 cells; type: toxicity, cell-based; settings: CCD 19Lu cells versus A549 cells, read-out: Ratio IC50
[7] = target: Cathepsin D (Homo sapiens) (UniProt P07339); assay: Inhibition of cathepsin D (unknown origin) at 100 uM relative to control
Sequence of Cathepsin D (Homo sapiens) (P07339 65-162 limits assumed): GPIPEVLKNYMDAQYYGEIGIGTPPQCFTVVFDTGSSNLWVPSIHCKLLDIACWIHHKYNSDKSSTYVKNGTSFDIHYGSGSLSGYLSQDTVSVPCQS
Sequence of Cathepsin D (Homo sapiens) (P07339 169-412 limits assumed): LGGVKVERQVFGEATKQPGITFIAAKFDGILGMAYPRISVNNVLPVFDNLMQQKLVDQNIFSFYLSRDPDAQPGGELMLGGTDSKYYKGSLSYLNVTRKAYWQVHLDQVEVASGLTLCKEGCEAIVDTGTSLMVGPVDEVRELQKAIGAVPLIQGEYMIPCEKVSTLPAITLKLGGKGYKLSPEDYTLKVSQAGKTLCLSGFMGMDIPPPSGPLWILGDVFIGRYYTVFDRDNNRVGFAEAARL

PANC-1 [8] = assay: Cytotoxicity against human PANC-1 cells assessed as inhibition of cell growth incubated for 24 hrs by MTT assay; type: functional, cell-based; settings: PANC-1, 24 h
[9] = target: Cathepsin D (Homo sapiens) (UniProt P07339); assay: Inhibition of cathepsin D (unknown origin) at 100 uM
[10] = target: Procathepsin L (Homo sapiens) (UniProt P07711); assay: Inhibition of cathepsin L (unknown origin) at 100 uM relative to control
PANC-1 [11] = assay: Induction of mitochondrial membrane potential loss in human PANC-1 cells assessed as polarized cells at IC50 incubated for 24 hrs by JC-1 staining based flow cytometry assay (reference value: 92%); type: functional
PANC-1 [12] = assay: Induction of apoptosis in human PANC-1 cells assessed as early apoptotic cells at IC50 incubated for 24 hrs by annexin V-FITC/PI staining based flow cytometry analysis (reference value: 0%); type: functional
PANC-1 [13] = assay: Induction of apoptosis in human PANC-1 cells assessed as activation of caspase-3 by measuring caspase-3 positive cells at IC50 incubated for 24 hrs by flow cytometry analysis (reference value: 1.8%); type: functional
PANC-1 [14] = assay: Induction of apoptosis in human PANC-1 cells assessed as late apoptotic cells at IC50 incubated for 24 hrs by annexin V-FITC/PI staining based flow cytometry analysis (reference value: 0.2%); type: functional
PANC-1 [15] = assay: Induction of morphological changes in human PANC-1 cells assessed as chromatin condensation at 10.04 uM incubated for 24 hrs by acridine orange/ethidium bromide staining based fluorescence microscopic analysis; type: functional, cell-based
A549 [16] = assay: Induction of morphological changes in human A549 cells assessed as chromatin condensation at 15.33 uM incubated for 24 hrs by acridine orange/ethidium bromide staining based fluorescence microscopic analysis; type: functional, cell-based
PANC-1 [17] = assay: Induction of morphological changes in human PANC-1 cells assessed as formation of apoptotic bodies at 10.04 uM incubated for 24 hrs by acridine orange/ethidium bromide staining based fluorescence microscopic analysis; type: functional, cell-based
PANC-1 [18] = assay: Induction of morphological changes in human PANC-1 cells assessed as cell shrinkage at 10.04 uM incubated for 24 hrs by acridine orange/ethidium bromide staining based fluorescence microscopic analysis; type: functional
PANC-1 [19] = assay: Induction of apoptosis in human PANC-1 cells assessed as total cell viability at IC50 incubated for 24 hrs by annexin V-FITC/PI staining based flow cytometry analysis (reference value: 84.4%); type: functional
A549 [20] = assay: Induction of apoptosis in human A549 cells assessed as total cell viability at IC50 incubated for 24 hrs by annexin V-FITC/PI staining based flow cytometry analysis (reference value: 85.6 %); type: functional
A549 [21] = assay: Induction of apoptosis in human A549 cells assessed as late apoptotic cells at IC50 incubated for 24 hrs by annexin V-FITC/PI staining based flow cytometry analysis (reference value: 6.5 %); type: functional
A549 [22] = assay: Induction of mitochondrial membrane potential loss in human A549 cells assessed as depolarized cells at IC50 incubated for 24 hrs by JC-1 staining based flow cytometry assay (reference value: 6.9%); type: functional
A549 [23] = assay: Inhibition of DNA synthesis in human A549 cells at IC50/2 incubated for 24 hrs by BrdU incorporation assay relative to control; type: functional
A549 [24] = assay: Induction of apoptosis in human A549 cells assessed as early apoptotic cells at IC50 incubated for 24 hrs by annexin V-FITC/PI staining based flow cytometry analysis (reference value: 5.6%); type: functional
A549 [25] = assay: Induction of morphological changes in human A549 cells assessed as formation of apoptotic bodies at 15.33 uM incubated for 24 hrs by acridine orange/ethidium bromide staining based fluorescence microscopic analysis; type: functional, cell-based
A549 [26] = assay: Induction of apoptosis in human A549 cells assessed as activation of caspase-3 by measuring caspase-3 negative cells at IC50 incubated for 24 hrs by flow cytometry analysis (reference value: 91.1%); type: functional
A549 [27] = assay: Induction of morphological changes in human A549 cells assessed as cell shrinkage at 15.33 uM incubated for 24 hrs by acridine orange/ethidium bromide staining based fluorescence microscopic analysis; type: functional
A549 [28] = assay: Induction of mitochondrial membrane potential loss in human A549 cells assessed as polarized cells at IC50 incubated for 24 hrs by JC-1 staining based flow cytometry assay (reference value: 90.6%); type: functional
A549 [29] = assay: Induction of apoptosis in human A549 cells assessed as activation of caspase-3 by measuring caspase-3 positive cells at IC50 incubated for 24 hrs by flow cytometry analysis (reference value: 8.4%); type: functional
A549 [30] = assay: Inhibition of DNA synthesis in human A549 cells at IC50 incubated for 24 hrs by BrdU incorporation assay relative to control; type: functional
A549 [31] = assay: Inhibition of DNA synthesis in human A549 cells at IC50/4 incubated for 24 hrs by BrdU incorporation assay relative to control; type: functional
PANC-1 [32] = assay: Inhibition of DNA synthesis in human PANC-1 cells at 10.04 uM incubated for 24 hrs by BrdU incorporation assay relative to control; type: functional
PANC-1 [33] = assay: Induction of mitochondrial membrane potential loss in human PANC-1 cells assessed as depolarized cells at IC50 incubated for 24 hrs by JC-1 staining based flow cytometry assay (reference value: 5%); type: functional
PANC-1 [34] = assay: Induction of apoptosis in human PANC-1 cells assessed as activation of caspase-3 by measuring caspase-3 negative cells at IC50 incubated for 24 hrs by flow cytometry analysis (reference value: 98.5 %); type: functional
PANC-1 [35] = assay: Inhibition of DNA synthesis in human PANC-1 cells at IC50/4 to IC50 concentration incubated for 24 hrs by BrdU incorporation assay; type: functional, cell-based
PANC-1 [36] = assay: Induction of morphological changes in human PANC-1 cells assessed as cell shrinkage at 13.58 uM incubated for 24 hrs by acridine orange/ethidium bromide staining based fluorescence microscopic analysis; type: functional
PANC-1 [37] = assay: Potency index, ratio of cisplatin IC50 for test compound IC50 for cytotoxicity against human PANC-1 cells assessed as inhibition of cell growth incubated for 24 hrs by MTT assay; type: functional
PANC-1 [38] = assay: Induction of morphological changes in human PANC-1 cells assessed as formation of apoptotic bodies at 13.58 uM incubated for 24 hrs by acridine orange/ethidium bromide staining based fluorescence microscopic analysis; type: functional, cell-based
PANC-1 [39] = assay: Induction of morphological changes in human PANC-1 cells assessed as chromatin condensation at 13.58 uM incubated for 24 hrs by acridine orange/ethidium bromide staining based fluorescence microscopic analysis; type: functional, cell-based

inhibition [3]: inactive
inhibition [7]: 26%
SMILES: CN1CCN(c2ccc(/C=C3\Cc4cc5c(cc4C3=O)OCO5)cc2)CC1
IC50 (A549 [1]): 57.9 µM
IC50 at 24 h [2]: > 1380 µM
selectivity ratio [4]: > 8.82
IC50 at 24 h [5]: > 1380 µM
selectivity ratio [6]: > 23.8
IC50 (PANC-1 [8]): 156 µM

inhibition [9]: inactive
inhibition [10]: 24.8%
SMILES: O=C1/C(=C/c2ccc(-n3ccnc3)cc2)Cc2cc3c(cc21)OCO3
IC50 (A549 [1]): 132 µM
IC50 at 24 h [2]: > 1510 µM
selectivity ratio [4]: 2.16
IC50 at 24 h [5]: 153 µM
selectivity ratio [6]: > 11.4
IC50 (PANC-1 [8]): 71.1 µM

inhibition [9]: inactive
inhibition [3]: inactive
SMILES: O=C1/C(=C/c2ccc(OCCN3CCOCC3)cc2)Cc2cc3c(cc21)OCO3
Activity (PANC-1 [11]): 37.8%
IC50 (A549 [1]): 15.3 µM
IC50 at 24 h [2]: 160 µM
Activity (PANC-1 [12]): 0.1%
Activity (PANC-1 [13]): 7.3%
Activity (PANC-1 [14]): 0.5%
Activity (PANC-1 [15]): Active
Activity (A549 [16]): Active
Activity (PANC-1 [17]): Active
Activity (PANC-1 [18]): Active
Activity (PANC-1 [19]): 9.5%
Activity (A549 [20]): 82.4%
selectivity ratio [4]: > 127
Activity (A549 [21]): 5.6%
Activity (A549 [22]): 35%
IC50 at 24 h [5]: > 1270 µM
inhibition (INH) (A549 [23]): 9.78%
selectivity ratio [6]: 10.4
Activity (A549 [24]): 10.4%
Activity (A549 [25]): Active
Activity (A549 [26]): 93.2%
Activity (A549 [27]): Active
Activity (A549 [28]): 62.8%
Activity (A549 [29]): 6.9%
inhibition (INH) (A549 [30]): 19.99%
inhibition (INH) (A549 [31]): 4.83%
IC50 (PANC-1 [8]): 10 µM
inhibition at 10.04 µM (PANC-1 [32]): 18.4%
Activity (PANC-1 [33]): 61.2%
Activity (PANC-1 [34]): 93.6%

inhibition [9]: inactive
inhibition [3]: inactive
SMILES: O=C1/C(=C/c2ccc(-n3cncn3)cc2)Cc2cc3c(cc21)OCO3
Activity (PANC-1 [11]): 29.5%
inhibition (PANC-1 [35]): inactive
IC50 (A549 [1]): 64.9 µM
IC50 at 24 h [2]: > 1510 µM
Activity (PANC-1 [12]): 0.1%
Activity (PANC-1 [13]): 9.1%
Activity (PANC-1 [14]): 0.4%
Activity (PANC-1 [19]): 94%
Activity (PANC-1 [36]): Active
selectivity ratio [4]: > 111
IC50 at 24 h [5]: > 1510 µM
Ratio IC50 (PANC-1 [37]): 3
selectivity ratio [6]: > 23.3
Activity (PANC-1 [38]): Active
Activity (PANC-1 [39]): Active
IC50 (PANC-1 [8]): 13.6 µM
Activity (PANC-1 [33]): 58.6%
Activity (PANC-1 [34]): 93.5%

From ChEMBL document CHEMBL5247607, “Design, synthesis and biological evaluation of a new series of arylidene indanones as small molecules for targeted therapy of non-small cell lung carcinoma and prostate cancer” (Eur J Med Chem, 2022)
